Patent US10131652B2, “Pyrimidinyloxy benzene derivatives as herbicides” (E. I. DU PONT DE NEMOURS AND COMPANY, priority 2014, dated 2018)
Where two headings read alike, the source gives them in different places.

Key:
Format in all cases: in vivo
[1] = tested on: blackgrass (Alopecurus myosuroides); test: Test E pre-/postemergence plant response; conditions: scale 0 to 100, read-out: Plant response rating, Blackgrass; for pest or weed control at 16 g/ha: 16 g ai/ha; for pest or weed control at 31 g/ha: 31 g ai/ha; for pest or weed control at 62 g/ha: 62 g ai/ha; for pest or weed control at 125 g/ha: 125 g ai/ha
Source text: (§1) Seeds of plant species selected from bluegrass (annual bluegrass, Poa annua), blackgrass (Alopecurus myosuroides), canarygrass (Phalaris minor), chickweed (common chickweed, Stellaria media), galium (catchweed bedstraw, Galium aparine), downy bromegrass (Bromus tectorum), field poppy (Papaver rhoeas), field violet (Viola arvensis), green foxtail (Setaria viridis), deadnettle (henbit deadnettle, Lamium amplexicaule), Italian ryegrass (Lolium multiflorum), kochia (Kochia scoparia), lambsquarters (Chenopodium album), oilseed rape (Brassica napus), pigweed (Amaranthus retroflexus), Russian thistle (Salsola iberica), chamomile (scentless chamomile, Matricaria inodora), speedwell (bird's-eye speedwell, Veronica persica), spring barley (Hordeum vulgare), spring wheat (Triticum aestivum), wild buckwheat (Polygonum convolvulus), wild mustard (Sinapis arvensis), wild oat (Avena fatua), wild radish (Raphanus raphanistrum), windgrass (Apera spica-venti), winter barley (Hordeum vulgare), and winter wheat (Triticum aestivum) were planted into a silt loam soil and treated preemergence with test chemicals formulated in a non-phytotoxic solvent mixture which included a surfactant. At the same time, these species were planted in pots containing Redi-Earth® planting medium (Scotts Company, 14111 Scottslawn Road, Marysville, Ohio 43041) comprising spaghnum peat moss, vermiculite, wetting agent and starter nutrients and treated with postemergence applications of the test chemicals formulated in the same manner. Plants ranged in height from 2 to 18 cm (1- to 4-leaf stage).
(§2) Treated plants and controls were maintained in a controlled growth environment for 7 to 21 days after which time all species were compared to controls and visually evaluated. Plant response ratings, summarized in Table E, are based on a scale of 0 to 100 where 0 is no effect and 100 is complete control. A dash (-) response means no test result.

[2] = tested on: spring barley (Hordeum vulgare); test: Test E pre-/postemergence plant response; conditions: for plant injury at 16 g/ha: 16 g ai/ha; for plant injury at 31 g/ha: 31 g ai/ha; for plant injury at 62 g/ha: 62 g ai/ha; for plant injury at 125 g/ha: 125 g ai/ha
Source text: as §1, §2

[3] = tested on: canarygrass (Phalaris minor); test: Test E pre-/postemergence plant response; conditions: scale 0 to 100, read-out: Plant response rating, Canarygrass; for pest or weed control at 16 g/ha: 16 g ai/ha; for pest or weed control at 31 g/ha: 31 g ai/ha; for pest or weed control at 62 g/ha: 62 g ai/ha; for pest or weed control at 125 g/ha: 125 g ai/ha
Source text: as §1, §2

[4] = tested on: bluegrass (annual bluegrass, Poa annua); test: Test E pre-/postemergence plant response; conditions: scale 0 to 100, read-out: Plant response rating, Bluegrass; for pest or weed control at 16 g/ha: 16 g ai/ha; for pest or weed control at 31 g/ha: 31 g ai/ha; for pest or weed control at 62 g/ha: 62 g ai/ha; for pest or weed control at 125 g/ha: 125 g ai/ha
Source text: as §1, §2

[5] = tested on: winter wheat (Triticum aestivum); test: Test E pre-/postemergence plant response; conditions: scale 0 to 100, read-out: Plant response rating, Wheat, Winter; for plant injury at 16 g/ha: 16 g ai/ha; for plant injury at 31 g/ha: 31 g ai/ha; for plant injury at 62 g/ha: 62 g ai/ha; for plant injury at 125 g/ha: 125 g ai/ha
Source text: as §1, §2

[6] = tested on: waterhemp_RES2 (ALS & HPPD resistant common waterhemp, Amaranthus rudis); test: Test F postemergence plant response; conditions: scale 0 to 100
Procedure: (§3) At the same time, plants from these crop and weed species and also waterhemp_RES1, (ALS & Triazine resistant common waterhemp, Amaranthus rudis), and waterhemp_RES2, (ALS & HPPD resistant common waterhemp, Amaranthus rudis) were treated with postemergence applications of test chemicals formulated in the same manner. Plants ranged in height from 2 to 18 cm for postemergence treatments (1- to 4-leaf stage).
(§4) Treated plants and controls were maintained in a greenhouse for 14 to 21 days, after which time all species were compared to controls and visually evaluated. Plant response ratings, summarized in Table F, are based on a scale of 0 to 100 where 0 is no effect and 100 is complete control. A dash (-) response means no test result.

[7] = tested on: waterhemp_RES1 (ALS & Triazine resistant common waterhemp, Amaranthus rudis); test: Test F postemergence plant response; conditions: scale 0 to 100
Procedure: as §3, §4

[8] = post-emergence, Postemergence, scale 0 to 100, read-out: Plant response rating, Barley, Spring
[9] = post-emergence, Postemergence, scale 0 to 100 (0 no effect, 100 complete control), read-out: Plant response rating, Barley, Spring
[10] = pre-emergence, Preemergence, scale 0 to 100, read-out: Plant response rating, Barley, Spring

Fc1cccc(Oc2ncc(Cl)cn2)c1-c1cc(C(F)(F)F)on1 [Compound 168, 5-chloro-2-[2-[5-(trifluoromethyl)-3-isoxazolyl]-3-fluorophenoxy]pyrimidine]
100%: pest or weed control at 62 g/ha ([1]; pre-emergence, Preemergence) | pest or weed control at 125 g/ha ([1]; pre-emergence, Preemergence) | pest or weed control at 62 g/ha ([3]; pre-emergence, Preemergence) | pest or weed control at 125 g/ha ([3]; pre-emergence, Preemergence) | pest or weed control at 125 g/ha ([4]; pre-emergence, Preemergence)
80%: pest or weed control at 62 g/ha ([4]; pre-emergence, Preemergence)
25%: pest or weed control at 31 g/ha ([1]; post-emergence, Postemergence) | plant injury at 125 g/ha [2, 9] | pest or weed control at 62 g/ha ([3]; post-emergence, Postemergence) | plant injury at 62 g/ha ([5]; post-emergence, Postemergence)
30%: plant injury at 62 g/ha [2, 10] | plant injury at 125 g/ha ([5]; pre-emergence, Preemergence)
5%: pest or weed control at 31 g/ha ([4]; post-emergence, Postemergence) | plant injury at 16 g/ha ([5]; post-emergence, Postemergence) | plant injury at 16 g/ha ([5]; pre-emergence, Preemergence)
60%: pest or weed control at 125 g/ha ([1]; post-emergence, Postemergence)
0%: plant injury at 16 g/ha [2, 10] | pest or weed control at 16 g/ha ([4]; pre-emergence, Preemergence)
15%: pest or weed control at 16 g/ha ([1]; post-emergence, Postemergence) | plant injury at 31 g/ha [2, 8] | plant injury at 62 g/ha [2, 8] | plant injury at 31 g/ha [2, 10] | pest or weed control at 16 g/ha ([3]; post-emergence, Postemergence) | pest or weed control at 31 g/ha ([3]; post-emergence, Postemergence) | pest or weed control at 16 g/ha ([3]; pre-emergence, Preemergence) | pest or weed control at 31 g/ha ([3]; pre-emergence, Preemergence) | pest or weed control at 125 g/ha ([4]; post-emergence, Postemergence)
55%: pest or weed control at 125 g/ha ([3]; post-emergence, Postemergence)
10%: pest or weed control at 16 g/ha ([1]; pre-emergence, Preemergence) | plant injury at 16 g/ha [2, 8] | pest or weed control at 16 g/ha ([4]; post-emergence, Postemergence) | pest or weed control at 62 g/ha ([4]; post-emergence, Postemergence) | pest or weed control at 31 g/ha ([4]; pre-emergence, Preemergence) | plant injury at 31 g/ha ([5]; post-emergence, Postemergence) | plant injury at 62 g/ha ([5]; pre-emergence, Preemergence)
35%: pest or weed control at 62 g/ha ([1]; post-emergence, Postemergence) | pest or weed control at 31 g/ha ([1]; pre-emergence, Preemergence) | plant injury at 125 g/ha [2, 10] | plant injury at 125 g/ha ([5]; post-emergence, Postemergence)

FC(F)c1cc(-c2ccccc2Oc2ncc(Cl)cn2)on1 [Compound 53, 5-chloro-2-[2-[3-(difluoromethyl)-5-isoxazolyl]phenoxy]pyrimidine]
10%: pest or weed control at 62 g/ha ([1]; post-emergence, Postemergence) | pest or weed control at 16 g/ha ([1]; pre-emergence, Preemergence) | pest or weed control at 31 g/ha ([1]; pre-emergence, Preemergence) | plant injury at 62 g/ha [2, 8] | plant injury at 125 g/ha [2, 9] | pest or weed control at 31 g/ha ([3]; post-emergence, Postemergence) | pest or weed control at 16 g/ha ([3]; pre-emergence, Preemergence) | pest or weed control at 16 g/ha ([4]; pre-emergence, Preemergence) | pest or weed control at 31 g/ha ([4]; pre-emergence, Preemergence)
95: Plant response rating, Waterhemp_RES1 ([7]; 62 g ai/ha Postemergence)
25%: pest or weed control at 125 g/ha ([1]; post-emergence, Postemergence) | pest or weed control at 62 g/ha ([1]; pre-emergence, Preemergence) | pest or weed control at 62 g/ha ([3]; post-emergence, Postemergence) | pest or weed control at 125 g/ha ([4]; pre-emergence, Preemergence) | plant injury at 62 g/ha ([5]; pre-emergence, Preemergence)
5%: pest or weed control at 31 g/ha ([1]; post-emergence, Postemergence) | plant injury at 16 g/ha [2, 8] | plant injury at 31 g/ha [2, 8] | pest or weed control at 16 g/ha ([3]; post-emergence, Postemergence) | pest or weed control at 62 g/ha ([4]; post-emergence, Postemergence) | pest or weed control at 125 g/ha ([4]; post-emergence, Postemergence) | plant injury at 16 g/ha ([5]; post-emergence, Postemergence) | plant injury at 31 g/ha ([5]; post-emergence, Postemergence)
100: Plant response rating, Waterhemp_RES2 ([6]; 62 g ai/ha Postemergence) | Plant response rating, Waterhemp_RES2 ([6]; 125 g ai/ha Postemergence) | Plant response rating, Waterhemp_RES1 ([7]; 125 g ai/ha Postemergence)
70: Plant response rating, Waterhemp_RES2 ([6]; 8 g ai/ha Postemergence) | Plant response rating, Waterhemp_RES1 ([7]; 8 g ai/ha Postemergence)
95%: pest or weed control at 125 g/ha ([3]; pre-emergence, Preemergence)
80: Plant response rating, Waterhemp_RES2 ([6]; 16 g ai/ha Postemergence)
35%: plant injury at 16 g/ha [2, 10] | plant injury at 31 g/ha [2, 10] | plant injury at 62 g/ha [2, 10] | plant injury at 125 g/ha [2, 10] | plant injury at 125 g/ha ([5]; post-emergence, Postemergence)
85: Plant response rating, Waterhemp_RES1 ([7]; 16 g ai/ha Postemergence)
20%: pest or weed control at 31 g/ha ([3]; pre-emergence, Preemergence) | pest or weed control at 62 g/ha ([4]; pre-emergence, Preemergence)
0%: pest or weed control at 16 g/ha ([1]; post-emergence, Postemergence) | pest or weed control at 16 g/ha ([4]; post-emergence, Postemergence) | pest or weed control at 31 g/ha ([4]; post-emergence, Postemergence)
40%: pest or weed control at 125 g/ha ([3]; post-emergence, Postemergence)
65%: pest or weed control at 62 g/ha ([3]; pre-emergence, Preemergence)
90: Plant response rating, Waterhemp_RES2 ([6]; 31 g ai/ha Postemergence) | Plant response rating, Waterhemp_RES1 ([7]; 31 g ai/ha Postemergence)
30%: pest or weed control at 125 g/ha ([1]; pre-emergence, Preemergence) | plant injury at 125 g/ha ([5]; pre-emergence, Preemergence)
15%: plant injury at 62 g/ha ([5]; post-emergence, Postemergence) | plant injury at 16 g/ha ([5]; pre-emergence, Preemergence)
